Data reported in ChEMBL document CHEMBL5543145, “Discovery of the First-in-Class G9a/GLP PROTAC Degrader” (J Med Chem, 2024).
Calls of active or inactive are those of the source. No cut-off for these calls is given here.

Tests used:
[1] = biological target: T1, von Hippel-Lindau disease tumor suppressor/Histone-lysine N-methyltransferase EHMT2 (Homo sapiens, UniProt Q96KQ7+P40337); test: PROTAC activity at G9a/VHL in human 22Rv1 cells assessed as induction of G9a degradation at 3 uM incubated for 24 hrs by Western blot analysis relative to control; type: cell-based
T1 sequence (P40337 whole entry partner): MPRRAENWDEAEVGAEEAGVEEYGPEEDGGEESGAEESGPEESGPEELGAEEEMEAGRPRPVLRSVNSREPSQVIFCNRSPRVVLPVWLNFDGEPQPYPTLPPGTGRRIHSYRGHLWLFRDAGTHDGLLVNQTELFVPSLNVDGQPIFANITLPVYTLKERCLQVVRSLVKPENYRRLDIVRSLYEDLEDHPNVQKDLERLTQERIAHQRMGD
T1 sequence (Q96KQ7 2-1210 limits assumed): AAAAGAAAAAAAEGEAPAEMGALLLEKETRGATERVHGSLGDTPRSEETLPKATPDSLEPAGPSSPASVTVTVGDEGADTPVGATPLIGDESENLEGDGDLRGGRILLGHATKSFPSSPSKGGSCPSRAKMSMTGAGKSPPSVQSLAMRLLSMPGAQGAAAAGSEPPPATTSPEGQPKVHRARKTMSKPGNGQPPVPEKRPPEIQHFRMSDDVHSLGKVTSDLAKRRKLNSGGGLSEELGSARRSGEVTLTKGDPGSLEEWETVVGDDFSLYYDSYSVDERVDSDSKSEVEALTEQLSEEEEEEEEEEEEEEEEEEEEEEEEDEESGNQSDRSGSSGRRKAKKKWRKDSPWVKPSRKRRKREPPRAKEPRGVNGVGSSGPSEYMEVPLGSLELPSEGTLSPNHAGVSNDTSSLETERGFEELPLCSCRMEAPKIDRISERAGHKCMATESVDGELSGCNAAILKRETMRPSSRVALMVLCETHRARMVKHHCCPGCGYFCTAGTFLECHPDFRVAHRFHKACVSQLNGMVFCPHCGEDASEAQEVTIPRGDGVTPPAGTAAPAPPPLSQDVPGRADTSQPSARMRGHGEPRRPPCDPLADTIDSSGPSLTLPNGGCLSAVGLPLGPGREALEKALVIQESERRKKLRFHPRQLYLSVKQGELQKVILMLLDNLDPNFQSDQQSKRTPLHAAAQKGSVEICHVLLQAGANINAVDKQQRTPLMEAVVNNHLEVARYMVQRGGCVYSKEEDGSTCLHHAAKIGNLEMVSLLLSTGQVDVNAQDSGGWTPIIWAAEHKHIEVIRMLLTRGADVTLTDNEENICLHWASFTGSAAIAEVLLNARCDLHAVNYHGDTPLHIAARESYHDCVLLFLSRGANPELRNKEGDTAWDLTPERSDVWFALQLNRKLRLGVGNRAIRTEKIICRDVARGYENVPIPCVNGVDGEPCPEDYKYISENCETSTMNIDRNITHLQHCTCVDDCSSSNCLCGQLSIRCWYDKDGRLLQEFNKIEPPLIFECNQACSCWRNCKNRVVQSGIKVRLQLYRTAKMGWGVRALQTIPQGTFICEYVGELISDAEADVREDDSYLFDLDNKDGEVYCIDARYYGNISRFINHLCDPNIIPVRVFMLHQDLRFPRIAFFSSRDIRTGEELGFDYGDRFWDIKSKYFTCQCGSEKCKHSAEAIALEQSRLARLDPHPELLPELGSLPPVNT

[2] = biological target: T2, von Hippel-Lindau disease tumor suppressor/Histone-lysine N-methyltransferase EHMT1 (Homo sapiens, UniProt Q9H9B1+P40337); test: PROTAC activity at GLP/VHL in human 22Rv1 cells assessed as induction of GLP degradation at 0.3 uM incubated for 24 hrs by Western blot analysis relative to control; type: cell-based
Target sequence in this assay (P40337 whole entry partner): as the sequence (P40337 whole entry partner) above
Target sequence in this assay (Q9H9B1 2-1298 limits assumed): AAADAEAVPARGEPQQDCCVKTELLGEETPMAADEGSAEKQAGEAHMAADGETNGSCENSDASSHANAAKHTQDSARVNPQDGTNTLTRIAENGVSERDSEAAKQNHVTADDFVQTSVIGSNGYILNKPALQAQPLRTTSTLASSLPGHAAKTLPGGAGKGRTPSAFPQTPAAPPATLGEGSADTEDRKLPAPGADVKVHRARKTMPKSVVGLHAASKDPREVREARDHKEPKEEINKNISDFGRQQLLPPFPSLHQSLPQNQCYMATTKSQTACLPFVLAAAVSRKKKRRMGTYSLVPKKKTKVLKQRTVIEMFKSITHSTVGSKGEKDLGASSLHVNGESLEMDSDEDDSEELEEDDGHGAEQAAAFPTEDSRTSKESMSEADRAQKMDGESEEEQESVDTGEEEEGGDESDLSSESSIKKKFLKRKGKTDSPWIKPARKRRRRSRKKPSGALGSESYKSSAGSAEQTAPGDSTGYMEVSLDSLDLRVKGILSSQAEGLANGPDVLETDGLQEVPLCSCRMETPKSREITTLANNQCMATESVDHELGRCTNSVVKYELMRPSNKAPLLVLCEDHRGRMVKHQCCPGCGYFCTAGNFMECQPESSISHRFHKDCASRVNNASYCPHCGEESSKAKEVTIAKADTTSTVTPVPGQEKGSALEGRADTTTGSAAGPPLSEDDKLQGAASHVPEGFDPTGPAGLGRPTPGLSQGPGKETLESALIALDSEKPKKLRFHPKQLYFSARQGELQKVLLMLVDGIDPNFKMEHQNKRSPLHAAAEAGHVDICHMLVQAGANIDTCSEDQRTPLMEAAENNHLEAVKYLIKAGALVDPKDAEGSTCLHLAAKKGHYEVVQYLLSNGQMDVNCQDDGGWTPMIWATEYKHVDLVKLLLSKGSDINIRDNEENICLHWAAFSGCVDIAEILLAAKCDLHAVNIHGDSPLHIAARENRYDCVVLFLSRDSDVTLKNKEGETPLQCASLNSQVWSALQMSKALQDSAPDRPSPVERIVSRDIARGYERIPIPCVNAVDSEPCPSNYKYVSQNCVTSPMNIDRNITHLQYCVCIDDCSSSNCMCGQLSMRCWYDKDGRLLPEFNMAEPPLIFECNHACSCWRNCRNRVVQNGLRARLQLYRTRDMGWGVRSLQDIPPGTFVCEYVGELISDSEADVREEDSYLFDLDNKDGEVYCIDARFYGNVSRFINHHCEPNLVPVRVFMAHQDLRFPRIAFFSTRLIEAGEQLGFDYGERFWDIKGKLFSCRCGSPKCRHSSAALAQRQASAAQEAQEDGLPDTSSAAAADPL

[3] = biological target: T2, von Hippel-Lindau disease tumor suppressor/Histone-lysine N-methyltransferase EHMT1; test: PROTAC activity at GLP/VHL in human 22Rv1 cells assessed as induction of GLP degradation at 1 uM incubated for 24 hrs by Western blot analysis; type: cell-based
Target sequence in this assay (P40337 whole entry partner): as the sequence (P40337 whole entry partner) above
Target sequence in this assay (Q9H9B1 2-1298 limits assumed): as the sequence (Q9H9B1 2-1298 limits assumed) above

CWR22R [4] = test: Cytotoxicity against human 22Rv1 cells assessed as growth inhibition measured for 7 days; type: functional; conditions: 22Rv1, 168 h, time 7 day
[5] = biological target: T2, von Hippel-Lindau disease tumor suppressor/Histone-lysine N-methyltransferase EHMT1; test: PROTAC activity at GLP/VHL in human 22Rv1 cells assessed as induction of GLP degradation incubated for 24 hrs by Western blot analysis; type: cell-based
[6] = biological target: T1, von Hippel-Lindau disease tumor suppressor/Histone-lysine N-methyltransferase EHMT2; test: PROTAC activity at G9a/VHL in human 22Rv1 cells assessed as induction of G9a degradation at 3 uM by Western blot analysis; type: cell-based; conditions: time <= 48.0 hrs, TDE = time-dependent effect
[7] = biological target: T2, von Hippel-Lindau disease tumor suppressor/Histone-lysine N-methyltransferase EHMT1; test: PROTAC activity at GLP/VHL in human 22Rv1 cells assessed as induction of GLP degradation at 3 uM by Western blot analysis; type: cell-based; conditions: time <= 48.0 hrs, TDE = time-dependent effect
Target sequence in this assay (P40337 whole entry partner): as the sequence (P40337 whole entry partner) above
Target sequence in this assay (Q9H9B1 2-1298 limits assumed): as the sequence (Q9H9B1 2-1298 limits assumed) above

[8] = biological target: T2, von Hippel-Lindau disease tumor suppressor/Histone-lysine N-methyltransferase EHMT1; test: PROTAC activity at GLP/VHL in human 22Rv1 cells assessed as induction of GLP degradation at 3 uM measured at 4 hrs by Western blot analysis; type: cell-based
Target sequence in this assay (P40337 whole entry partner): as the sequence (P40337 whole entry partner) above
Target sequence in this assay (Q9H9B1 2-1298 limits assumed): as the sequence (Q9H9B1 2-1298 limits assumed) above

[9] = biological target: T2, von Hippel-Lindau disease tumor suppressor/Histone-lysine N-methyltransferase EHMT1; test: PROTAC activity at GLP/VHL in human 22Rv1 cells assessed as induction of GLP degradation at 3 uM measured at 24 to 48 hrs by Western blot analysis; type: cell-based; conditions: time 24-48 hrs
Target sequence in this assay (P40337 whole entry partner): as the sequence (P40337 whole entry partner) above
Target sequence in this assay (Q9H9B1 2-1298 limits assumed): as the sequence (Q9H9B1 2-1298 limits assumed) above

[10] = biological target: T1, von Hippel-Lindau disease tumor suppressor/Histone-lysine N-methyltransferase EHMT2; test: PROTAC activity at G9a/VHL in human 22Rv1 cells assessed as effect on G9a level upto 3 uM measured for 24 hrs by Western blot analysis; type: cell-based
[11] = biological target: T2, von Hippel-Lindau disease tumor suppressor/Histone-lysine N-methyltransferase EHMT1; test: PROTAC activity at GLP/VHL in human 22Rv1 cells assessed as effect on GLP level upto 3 uM measured for 24 hrs by Western blot analysis; type: cell-based
Target sequence in this assay (P40337 whole entry partner): as the sequence (P40337 whole entry partner) above
Target sequence in this assay (Q9H9B1 2-1298 limits assumed): as the sequence (Q9H9B1 2-1298 limits assumed) above

[12] = biological target: T1, von Hippel-Lindau disease tumor suppressor/Histone-lysine N-methyltransferase EHMT2; test: PROTAC activity at G9a/VHL in human 22Rv1 cells assessed as induction of G9a degradation at 1 uM pretreated with VHL-1 for 2 hrs followed by compound administration and measured after 24 hrs by Western blot analysis; type: cell-based
[13] = biological target: T2, von Hippel-Lindau disease tumor suppressor/Histone-lysine N-methyltransferase EHMT1; test: PROTAC activity at GLP/VHL in human 22Rv1 cells assessed as induction of GLP degradation at 1 uM pretreated with VHL-1 for 2 hrs followed by compound administration and measured after 24 hrs by Western blot analysis; type: cell-based
[14] = biological target: T1, von Hippel-Lindau disease tumor suppressor/Histone-lysine N-methyltransferase EHMT2; test: PROTAC activity at G9a/VHL in human 22Rv1 cells assessed as effect on G9a level at 3 uM incubated for 24 hrs by RT-qPCR analysis; type: cell-based
[15] = biological target: T2, von Hippel-Lindau disease tumor suppressor/Histone-lysine N-methyltransferase EHMT1; test: PROTAC activity at GLP/VHL in human 22Rv1 cells assessed as effect on VHL level at 3 uM incubated for 24 hrs by RT-qPCR analysis; type: cell-based
[16] = biological target: Histone-lysine N-methyltransferase EZH1 (Homo sapiens) (UniProt Q92800); test: Inhibition of EZH1 (unknown origin) at 10 uM relative to control
[17] = biological target: Histone-lysine N-methyltransferase 2A (Homo sapiens) (UniProt Q03164); test: Inhibition of MLL1 (unknown origin) at 10 uM relative to control
[18] = biological target: Histone-lysine N-methyltransferase NSD3 (Homo sapiens) (UniProt Q9BZ95); test: Inhibition of NSD3 (unknown origin) at 10 uM relative to control
[19] = biological target: Protein arginine N-methyltransferase 1 (Homo sapiens) (UniProt Q99873); test: Inhibition of PRMT1 (unknown origin) at 10 uM relative to control
[20] = biological target: Protein arginine N-methyltransferase 3 (Homo sapiens) (UniProt O60678); test: Inhibition of PRMT3 (unknown origin) at 10 uM relative to control
Sequence of Protein arginine N-methyltransferase 3 (Homo sapiens) (O60678 2-531 limits assumed): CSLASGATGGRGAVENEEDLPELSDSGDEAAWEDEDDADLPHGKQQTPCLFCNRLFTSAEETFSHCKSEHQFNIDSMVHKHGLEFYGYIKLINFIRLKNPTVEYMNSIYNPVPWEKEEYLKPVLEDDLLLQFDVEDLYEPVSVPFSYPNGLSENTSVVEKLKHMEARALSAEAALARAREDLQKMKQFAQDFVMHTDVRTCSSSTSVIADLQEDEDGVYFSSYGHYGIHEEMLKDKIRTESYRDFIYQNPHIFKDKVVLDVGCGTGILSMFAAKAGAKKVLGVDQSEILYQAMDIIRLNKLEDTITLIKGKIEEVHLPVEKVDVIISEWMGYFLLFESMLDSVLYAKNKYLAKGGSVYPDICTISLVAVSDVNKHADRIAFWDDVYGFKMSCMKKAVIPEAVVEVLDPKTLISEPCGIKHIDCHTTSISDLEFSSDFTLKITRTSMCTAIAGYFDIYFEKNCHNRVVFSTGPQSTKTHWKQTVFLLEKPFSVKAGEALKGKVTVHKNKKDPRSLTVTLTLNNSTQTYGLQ

[21] = biological target: Histone-arginine methyltransferase CARM1 (Homo sapiens) (UniProt Q86X55); test: Inhibition of PRMT4 (unknown origin) at 10 uM relative to control
Sequence of Histone-arginine methyltransferase CARM1 (Homo sapiens) (Q86X55 whole entry): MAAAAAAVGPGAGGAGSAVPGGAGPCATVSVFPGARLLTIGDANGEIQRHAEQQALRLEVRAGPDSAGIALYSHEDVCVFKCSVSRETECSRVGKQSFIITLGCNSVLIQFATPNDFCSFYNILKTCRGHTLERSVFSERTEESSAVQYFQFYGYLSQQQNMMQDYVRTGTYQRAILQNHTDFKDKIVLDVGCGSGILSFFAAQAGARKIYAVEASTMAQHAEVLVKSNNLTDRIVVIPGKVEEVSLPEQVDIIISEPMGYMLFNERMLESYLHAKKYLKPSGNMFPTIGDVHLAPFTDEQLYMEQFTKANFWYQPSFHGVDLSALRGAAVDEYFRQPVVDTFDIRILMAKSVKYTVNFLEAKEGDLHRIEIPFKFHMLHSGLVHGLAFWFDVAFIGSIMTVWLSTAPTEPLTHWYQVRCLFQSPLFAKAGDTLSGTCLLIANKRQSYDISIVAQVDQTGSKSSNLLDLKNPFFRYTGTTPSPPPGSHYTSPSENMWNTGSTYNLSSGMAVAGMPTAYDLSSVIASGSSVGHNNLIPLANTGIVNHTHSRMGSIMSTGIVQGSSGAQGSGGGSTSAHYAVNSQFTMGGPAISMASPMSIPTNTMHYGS

[22] = biological target: PRMT5/MEP50 complex (Homo sapiens) (UniProt O14744+Q9BQA1); test: Inhibition of PRMT5/MEP50 (unknown origin) at 10 uM relative to control; type: protein-complex assay
[23] = biological target: Protein arginine N-methyltransferase 7 (Homo sapiens) (UniProt Q9NVM4); test: Inhibition of PRMT7 (unknown origin) at 10 uM relative to control
[24] = biological target: Histone-lysine N-methyltransferase SETD1B (Homo sapiens) (UniProt Q9UPS6); test: Inhibition of SET1b (unknown origin) at 10 uM relative to control
[25] = biological target: Histone-lysine N-methyltransferase SETD7 (Homo sapiens) (UniProt Q8WTS6); test: Inhibition of SET7/9 (unknown origin) at 10 uM relative to control
Homo sapiens = species on record: Homo sapiens; test: Inhibition of SET6 (unknown origin) at 10 uM relative to control
[26] = biological target: Histone-lysine N-methyltransferase SETD2 (Homo sapiens) (UniProt Q9BYW2); test: Inhibition of SETD2 (unknown origin) at 10 uM relative to control
[27] = biological target: Histone-lysine N-methyltransferase SMYD3 (Homo sapiens) (UniProt Q9H7B4); test: Inhibition of SMYD3 (unknown origin) at 10 uM relative to control
Sequence of Histone-lysine N-methyltransferase SMYD3 (Homo sapiens) (Q9H7B4 whole entry): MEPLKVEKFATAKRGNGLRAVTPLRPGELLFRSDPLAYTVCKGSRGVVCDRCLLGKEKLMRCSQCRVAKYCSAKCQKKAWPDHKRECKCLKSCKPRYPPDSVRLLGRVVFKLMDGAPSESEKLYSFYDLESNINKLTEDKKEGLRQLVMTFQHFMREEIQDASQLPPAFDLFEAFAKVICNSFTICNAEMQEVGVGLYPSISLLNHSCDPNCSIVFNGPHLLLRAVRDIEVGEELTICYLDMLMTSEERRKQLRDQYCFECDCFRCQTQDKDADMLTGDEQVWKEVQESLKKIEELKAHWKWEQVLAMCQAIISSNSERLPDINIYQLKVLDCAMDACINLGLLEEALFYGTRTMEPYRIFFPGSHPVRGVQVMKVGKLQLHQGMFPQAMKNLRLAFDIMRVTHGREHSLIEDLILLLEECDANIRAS

[28] = biological target: Histone-lysine N-methyltransferase SUV39H1 (Homo sapiens) (UniProt O43463); test: Inhibition of SUV39H1 (unknown origin) at 10 uM relative to control
CWR22R [29] = test: Effect on EZH2 level in human 22Rv1 cells at 3 uM incubated for 24 hrs by Western blot analysis; type: functional, cell-based
CWR22R [30] = test: Effect on PRMT7 level in human 22Rv1 cells at 3 uM incubated for 24 hrs by Western blot analysis; type: functional, cell-based
CWR22R [31] = test: Effect on SET7/9 level in human 22Rv1 cells at 3 uM incubated for 24 hrs by Western blot analysis; type: functional, cell-based
[32] = biological target: T2, von Hippel-Lindau disease tumor suppressor/Histone-lysine N-methyltransferase EHMT1; test: PROTAC activity at GLP/VHL in human K562 cells assessed as induction of GLP degradation at 3 uM incubated for 24 hrs by Western blot analysis; type: cell-based
K562 = test: Cytotoxicity against human K562 cells assessed as growth inhibition incubated for 7 days; type: functional; conditions: K562, 168 h, time 7 day
[33] = biological target: T1, von Hippel-Lindau disease tumor suppressor/Histone-lysine N-methyltransferase EHMT2; test: PROTAC activity at G9a/VHL in human NCI-H1299 cells assessed as induction of G9a degradation at 3 uM incubated for 24 hrs by Western blot analysis; type: cell-based
NCI-H1299 = test: Cytotoxicity against human NCI-H1299 cells assessed as growth inhibition incubated for 8 days; type: functional; conditions: NCI-H1299, 192 h, time 8 day
[34] = Cmax in C57BL6 mouse plasma at 50 mg/kg, ip measured at 0.5 hrs by LC-MS/MS analysis; type: ADME, organism-based

Emax [1]: > 99%
Emax [2]: 49%
Activity [3]: Active
DC50 [5]: 0.26 µM
Activity [6]: Tde
Activity [7]: Tde
Activity [8]: Active
Activity [9]: 100%
Activity [10]: Active
Activity [11]: Active
Activity [12]: Active
Activity [13]: Active
Activity [14]: Active
Activity [15]: Active
inhibition [16]: > 50%
inhibition [17]: > 50%
inhibition [18]: > 50%
inhibition [19]: > 50%
inhibition [20]: > 50%
inhibition [21]: > 50%
inhibition [22]: > 50%
inhibition [23]: > 50%
inhibition [24]: > 50%
inhibition [25]: > 50%
inhibition (Homo sapiens): > 50%
inhibition [26]: > 50%
inhibition [27]: > 50%
inhibition [28]: > 50%
Activity [32]: Active
Activity [33]: Active
Cmax [34]: 27 µM
SMILES: COc1cc2c(NC3CCN(CCCC(=O)NCCCCCCCCCCCC(=O)N[C@H](C(=O)N4C[C@H](O)C[C@H]4C(=O)NCc4ccc(-c5scnc5C)cc4)C(C)(C)C)CC3)nc(N3CCC(F)(F)CC3)nc2cc1OCCCN1CCCC1
GI50 (CWR22R [4]): 4.1 µM
Activity (CWR22R [29]): Active
Activity (CWR22R [30]): Active
Activity (CWR22R [31]): Active
GI50 (K562): 2 µM
GI50 (NCI-H1299): 5 µM
